Assay results reported in the kinase profiling compilation of Christmann-Franck et al. (2016).
Values joined by “and” are separate entries in the source; they are usually repeats but may differ in a detail not shown here. Equal values may be shown once.

Legend:
Assay in all cases: KINOMEscan competition binding
Conditions in all cases: compound 10.0 µM
ACVR1B (human) = ACVR1B (human) (UniProt P36896)
ALK (human) = ALK (human) (UniProt Q9UM73)
AURKA (human) = AURKA (human) (UniProt O14965)
BRSK1 (human) = BRSK1 (human) (UniProt Q8TDC3)
CAMK2B (human) = CAMK2B (human) (UniProt Q13554)
CAMK2G (human) = CAMK2G (human) (UniProt Q13555)
CAMKK1 (human) = CAMKK1 (human) (UniProt Q8N5S9)
CDC42BPB (human) = CDC42BPB (human) (UniProt Q9Y5S2)
CDC42BPG (human) = CDC42BPG (human) (UniProt Q6DT37)
CDK15 (human) = CDK15 (human) (UniProt Q96Q40)
CDK5 (human) = CDK5 (human) (UniProt Q00535)
CLK4 (human) = CLK4 (human) (UniProt Q9HAZ1)
CSF1R (human) = CSF1R (human) (UniProt P07333)
CSNK1A1L (human) = CSNK1A1L (human) (UniProt Q8N752)
EIF2AK2 (human) = EIF2AK2 (human) (UniProt P19525)
EPHA1 (human) = EPHA1 (human) (UniProt P21709)
EPHA4 (human) = EPHA4 (human) (UniProt P54764)
EPHB4 (human) = EPHB4 (human) (UniProt P54760)
FGFR3 (human) = FGFR3 (human) (UniProt P22607)
FLT3 (human) = FLT3 (human) (UniProt P36888)
[1] = molecular target: JAK3 JH1 catalytic (human) (UniProt P52333)
KDR (human) = KDR (human) (UniProt P35968)
LCK (human) = LCK (human) (UniProt P06239)
MAP3K12 (human) = MAP3K12 (human) (UniProt Q12852)
MAP3K7 (human) = MAP3K7 (human) (UniProt O43318)
MAP4K2 (human) = MAP4K2 (human) (UniProt Q12851)
PAK6 (human) = PAK6 (human) (UniProt Q9NQU5)
PIK3CD (human) = PIK3CD (human) (UniProt O00329)
PLK4 (human) = PLK4 (human) (UniProt O00444)
PRKAA2 (human) = PRKAA2 (human) (UniProt P54646)
PRKACB (human) = PRKACB (human) (UniProt P22694)
RIPK2 (human) = RIPK2 (human) (UniProt O43353)
RIPK4 (human) = RIPK4 (human) (UniProt P57078)
RPS6KA1 KD2 (human) = RPS6KA1 KD2 (human) (UniProt Q15418)
SIK2 (human) = SIK2 (human) (UniProt Q9H0K1)
SRPK1 (human) = SRPK1 (human) (UniProt Q96SB4)
STK17A (human) = STK17A (human) (UniProt Q9UEE5)
[2] = molecular target: TYK2 JH1 catalytic (human) (UniProt P29597)
[3] = molecular target: TYK2 JH2 pseudokinase (human) (UniProt P29597)
ULK2 (human) = ULK2 (human) (UniProt Q8IYT8)

PAK6 (human), sequence (Q9NQU5 whole entry, looked up): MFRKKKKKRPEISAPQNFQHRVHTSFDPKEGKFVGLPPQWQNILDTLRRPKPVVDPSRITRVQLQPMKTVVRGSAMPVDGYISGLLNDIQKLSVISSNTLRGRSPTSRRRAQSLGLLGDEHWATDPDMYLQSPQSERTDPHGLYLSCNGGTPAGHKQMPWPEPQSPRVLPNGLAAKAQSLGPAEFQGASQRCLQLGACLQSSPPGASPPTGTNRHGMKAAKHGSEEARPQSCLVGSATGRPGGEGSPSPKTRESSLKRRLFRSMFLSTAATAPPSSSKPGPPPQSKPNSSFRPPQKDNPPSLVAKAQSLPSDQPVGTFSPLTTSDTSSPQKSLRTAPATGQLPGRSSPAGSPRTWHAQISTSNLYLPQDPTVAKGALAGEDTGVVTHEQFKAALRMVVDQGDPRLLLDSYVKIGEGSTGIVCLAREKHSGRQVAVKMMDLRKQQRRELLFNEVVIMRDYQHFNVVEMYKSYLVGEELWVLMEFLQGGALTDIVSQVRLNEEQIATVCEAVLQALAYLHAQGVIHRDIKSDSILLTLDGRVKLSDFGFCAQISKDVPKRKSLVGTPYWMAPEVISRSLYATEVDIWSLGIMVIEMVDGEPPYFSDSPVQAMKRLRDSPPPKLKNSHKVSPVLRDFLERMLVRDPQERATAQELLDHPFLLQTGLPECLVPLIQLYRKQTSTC
PIK3CD (human), sequence (O00329 whole entry, looked up): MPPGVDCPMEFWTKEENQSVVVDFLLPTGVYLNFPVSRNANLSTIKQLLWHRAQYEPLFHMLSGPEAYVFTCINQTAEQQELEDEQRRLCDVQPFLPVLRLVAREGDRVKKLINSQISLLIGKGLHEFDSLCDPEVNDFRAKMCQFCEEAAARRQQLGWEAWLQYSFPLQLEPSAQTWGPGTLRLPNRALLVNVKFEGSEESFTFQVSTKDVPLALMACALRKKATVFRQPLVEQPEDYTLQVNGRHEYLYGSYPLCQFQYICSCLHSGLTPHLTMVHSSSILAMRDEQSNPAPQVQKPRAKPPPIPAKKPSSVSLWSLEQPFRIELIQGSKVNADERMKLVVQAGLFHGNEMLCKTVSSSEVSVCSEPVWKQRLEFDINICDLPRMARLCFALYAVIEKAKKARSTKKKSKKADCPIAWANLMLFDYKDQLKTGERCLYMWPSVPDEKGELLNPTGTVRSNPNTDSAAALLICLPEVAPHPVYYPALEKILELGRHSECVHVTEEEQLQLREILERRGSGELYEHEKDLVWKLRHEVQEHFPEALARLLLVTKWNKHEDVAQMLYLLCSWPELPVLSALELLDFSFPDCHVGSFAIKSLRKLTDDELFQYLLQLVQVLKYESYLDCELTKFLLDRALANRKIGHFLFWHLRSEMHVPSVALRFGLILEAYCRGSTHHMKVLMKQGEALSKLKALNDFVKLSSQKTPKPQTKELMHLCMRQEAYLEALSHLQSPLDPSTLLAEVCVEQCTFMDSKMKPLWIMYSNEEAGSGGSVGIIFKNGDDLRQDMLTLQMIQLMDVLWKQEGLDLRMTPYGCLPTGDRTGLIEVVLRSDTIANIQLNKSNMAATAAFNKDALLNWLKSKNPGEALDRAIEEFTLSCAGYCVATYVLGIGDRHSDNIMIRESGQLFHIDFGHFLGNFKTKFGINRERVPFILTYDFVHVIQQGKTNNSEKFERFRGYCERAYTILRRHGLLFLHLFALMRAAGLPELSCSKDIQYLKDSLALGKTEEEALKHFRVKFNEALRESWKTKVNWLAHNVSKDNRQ
EIF2AK2 (human), sequence (P19525 whole entry, looked up): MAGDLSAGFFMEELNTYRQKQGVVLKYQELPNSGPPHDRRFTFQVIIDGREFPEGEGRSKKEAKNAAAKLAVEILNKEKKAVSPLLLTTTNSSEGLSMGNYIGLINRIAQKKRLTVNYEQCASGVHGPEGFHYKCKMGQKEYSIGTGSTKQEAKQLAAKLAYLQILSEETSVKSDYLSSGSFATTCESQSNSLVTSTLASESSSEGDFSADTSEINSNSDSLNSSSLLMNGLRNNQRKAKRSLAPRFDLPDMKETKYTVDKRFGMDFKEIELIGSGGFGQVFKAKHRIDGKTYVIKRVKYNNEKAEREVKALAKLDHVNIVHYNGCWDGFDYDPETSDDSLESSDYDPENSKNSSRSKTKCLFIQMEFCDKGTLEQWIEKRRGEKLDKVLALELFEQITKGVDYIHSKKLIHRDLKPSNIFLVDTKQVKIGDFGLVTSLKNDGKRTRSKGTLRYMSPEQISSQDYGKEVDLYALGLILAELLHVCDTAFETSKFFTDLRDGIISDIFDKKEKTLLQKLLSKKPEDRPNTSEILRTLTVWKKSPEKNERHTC
SRPK1 (human), sequence (Q96SB4 whole entry, looked up): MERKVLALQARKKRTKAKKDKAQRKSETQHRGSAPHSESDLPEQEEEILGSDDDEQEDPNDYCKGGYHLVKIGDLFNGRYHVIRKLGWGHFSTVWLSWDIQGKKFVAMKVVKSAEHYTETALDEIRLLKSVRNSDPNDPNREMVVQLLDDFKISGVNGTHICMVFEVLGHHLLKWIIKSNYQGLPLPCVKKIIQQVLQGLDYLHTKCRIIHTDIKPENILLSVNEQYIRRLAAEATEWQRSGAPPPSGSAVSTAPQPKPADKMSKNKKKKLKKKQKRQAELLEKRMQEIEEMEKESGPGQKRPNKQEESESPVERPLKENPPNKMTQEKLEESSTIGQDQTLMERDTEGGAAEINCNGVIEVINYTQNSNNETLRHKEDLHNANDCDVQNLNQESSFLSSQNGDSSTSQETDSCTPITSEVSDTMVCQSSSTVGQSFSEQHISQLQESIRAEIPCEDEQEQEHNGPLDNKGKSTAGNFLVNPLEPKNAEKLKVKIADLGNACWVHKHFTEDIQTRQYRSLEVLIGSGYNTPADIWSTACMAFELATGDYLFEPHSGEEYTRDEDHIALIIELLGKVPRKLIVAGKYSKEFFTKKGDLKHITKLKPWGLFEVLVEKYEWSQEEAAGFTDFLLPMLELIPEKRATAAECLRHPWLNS
ALK (human), sequence (Q9UM73 whole entry, looked up): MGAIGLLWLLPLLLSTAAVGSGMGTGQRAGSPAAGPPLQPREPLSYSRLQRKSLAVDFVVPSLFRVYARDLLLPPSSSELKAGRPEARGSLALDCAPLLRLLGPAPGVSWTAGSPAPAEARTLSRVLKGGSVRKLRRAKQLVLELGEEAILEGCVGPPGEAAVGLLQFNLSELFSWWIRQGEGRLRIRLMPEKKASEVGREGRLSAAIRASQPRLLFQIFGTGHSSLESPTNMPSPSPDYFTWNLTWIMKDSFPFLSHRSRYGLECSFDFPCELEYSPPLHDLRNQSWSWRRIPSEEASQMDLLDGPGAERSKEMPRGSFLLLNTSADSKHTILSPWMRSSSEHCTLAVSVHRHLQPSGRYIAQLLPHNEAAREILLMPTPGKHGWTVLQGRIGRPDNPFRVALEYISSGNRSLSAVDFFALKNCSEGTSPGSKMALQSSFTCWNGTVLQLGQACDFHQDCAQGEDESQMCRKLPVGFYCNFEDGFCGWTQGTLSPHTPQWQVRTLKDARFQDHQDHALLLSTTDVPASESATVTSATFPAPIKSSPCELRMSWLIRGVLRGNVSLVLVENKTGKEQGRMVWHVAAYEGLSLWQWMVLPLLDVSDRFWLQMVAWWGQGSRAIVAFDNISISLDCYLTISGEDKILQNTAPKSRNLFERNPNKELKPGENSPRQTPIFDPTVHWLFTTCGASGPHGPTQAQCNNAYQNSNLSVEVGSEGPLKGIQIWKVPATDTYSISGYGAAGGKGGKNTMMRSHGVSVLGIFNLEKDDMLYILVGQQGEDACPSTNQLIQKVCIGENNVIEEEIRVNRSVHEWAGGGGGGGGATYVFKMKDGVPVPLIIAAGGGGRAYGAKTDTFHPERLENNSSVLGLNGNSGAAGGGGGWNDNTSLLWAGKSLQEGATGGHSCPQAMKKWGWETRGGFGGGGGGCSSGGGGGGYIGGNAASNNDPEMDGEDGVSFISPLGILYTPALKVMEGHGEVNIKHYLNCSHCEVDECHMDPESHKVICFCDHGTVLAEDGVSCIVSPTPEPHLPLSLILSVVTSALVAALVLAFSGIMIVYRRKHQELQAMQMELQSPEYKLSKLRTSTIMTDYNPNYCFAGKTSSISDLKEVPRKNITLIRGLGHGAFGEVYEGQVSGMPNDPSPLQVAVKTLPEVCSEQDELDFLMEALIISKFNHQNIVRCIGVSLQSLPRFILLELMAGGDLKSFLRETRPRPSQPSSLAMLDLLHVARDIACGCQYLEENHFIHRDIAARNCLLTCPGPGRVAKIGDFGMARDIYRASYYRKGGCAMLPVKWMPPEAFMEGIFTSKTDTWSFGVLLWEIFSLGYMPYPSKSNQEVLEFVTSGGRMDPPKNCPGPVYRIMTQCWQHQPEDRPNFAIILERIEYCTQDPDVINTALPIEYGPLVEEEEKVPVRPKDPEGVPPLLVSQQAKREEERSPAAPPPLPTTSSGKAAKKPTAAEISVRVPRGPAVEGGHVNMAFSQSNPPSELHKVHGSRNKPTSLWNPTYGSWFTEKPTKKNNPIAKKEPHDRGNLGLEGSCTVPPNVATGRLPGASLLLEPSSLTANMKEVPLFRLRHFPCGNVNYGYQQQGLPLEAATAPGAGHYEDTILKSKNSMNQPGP
CDK15 (human), sequence (Q96Q40 whole entry, looked up): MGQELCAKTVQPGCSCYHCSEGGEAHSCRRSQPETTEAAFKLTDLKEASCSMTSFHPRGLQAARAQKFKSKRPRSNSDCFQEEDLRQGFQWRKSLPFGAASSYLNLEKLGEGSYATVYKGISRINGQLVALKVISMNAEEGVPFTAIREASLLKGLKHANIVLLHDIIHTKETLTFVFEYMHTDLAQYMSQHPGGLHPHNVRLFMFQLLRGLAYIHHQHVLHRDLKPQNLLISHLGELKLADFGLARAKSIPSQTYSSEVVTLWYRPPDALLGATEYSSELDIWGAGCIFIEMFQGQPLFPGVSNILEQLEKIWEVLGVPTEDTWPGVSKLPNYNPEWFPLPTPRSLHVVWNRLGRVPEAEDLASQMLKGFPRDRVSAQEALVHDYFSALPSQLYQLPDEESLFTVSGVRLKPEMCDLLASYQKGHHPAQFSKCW

SMILES	kinase still bound, per cent of control (ACVR1B (human)) [%]	kinase still bound, per cent of control (ALK (human)) [%]	kinase still bound, per cent of control (AURKA (human)) [%]	kinase still bound, per cent of control (BRSK1 (human)) [%]	kinase still bound, per cent of control (CAMK2B (human)) [%]	kinase still bound, per cent of control (CAMK2G (human)) [%]	kinase still bound, per cent of control (CAMKK1 (human)) [%]	kinase still bound, per cent of control (CDC42BPB (human)) [%]	kinase still bound, per cent of control (CDC42BPG (human)) [%]	kinase still bound, per cent of control (CDK15 (human)) [%]	kinase still bound, per cent of control (CDK5 (human)) [%]	kinase still bound, per cent of control (CLK4 (human)) [%]	kinase still bound, per cent of control (CSF1R (human))	kinase still bound, per cent of control (CSNK1A1L (human)) [%]	kinase still bound, per cent of control (EIF2AK2 (human)) [%]	kinase still bound, per cent of control (EPHA1 (human)) [%]	kinase still bound, per cent of control (EPHA4 (human)) [%]	kinase still bound, per cent of control (EPHB4 (human)) [%]	kinase still bound, per cent of control (FGFR3 (human)) [%]	kinase still bound, per cent of control (FLT3 (human))	further results
Cc1ccc2nc(NCCN)c3ncc(C)n3c2c1	97	100	100	90	73	100	100	100	94	100	100	53	16%	100	100	79	100	100	99	100%	kinase still bound, per cent of control [1]: 100%; kinase still bound, per cent of control (KDR (human)): 100%; kinase still bound, per cent of control (LCK (human)): 98%; kinase still bound, per cent of control (MAP3K12 (human)): 84%; kinase still bound, per cent of control (MAP3K7 (human)): 100%; kinase still bound, per cent of control (MAP4K2 (human)): 92%; kinase still bound, per cent of control (PAK6 (human)): 100%; kinase still bound, per cent of control (PIK3CD (human)): 99%; kinase still bound, per cent of control (PLK4 (human)): 90%; kinase still bound, per cent of control (PRKAA2 (human)): 100%; kinase still bound, per cent of control (PRKACB (human)): 100%; kinase still bound, per cent of control (RIPK2 (human)): 100%; kinase still bound, per cent of control (RIPK4 (human)): 100%; kinase still bound, per cent of control (RPS6KA1 KD2 (human)): 46%; kinase still bound, per cent of control (SIK2 (human)): 82%; kinase still bound, per cent of control (SRPK1 (human)): 100%; kinase still bound, per cent of control (STK17A (human)): 68%; kinase still bound, per cent of control [2]: 100%; kinase still bound, per cent of control [3]: 15%; kinase still bound, per cent of control (ULK2 (human)): 100%
O=C(NOC[C@H](O)CO)c1ccc(F)c(F)c1Nc1ccc(I)cc1F	100	100	100	100	100	100	100	83	85	78	100	89	100% and 80%	80	100	91	100	100	100	82% and 80%	kinase still bound, per cent of control [1]: 100%; kinase still bound, per cent of control (KDR (human)): 84%; kinase still bound, per cent of control (LCK (human)): 88%; kinase still bound, per cent of control (MAP3K12 (human)): 78%; kinase still bound, per cent of control (MAP3K7 (human)): 75%; kinase still bound, per cent of control (MAP4K2 (human)): 100%; kinase still bound, per cent of control (PAK6 (human)): 94%; kinase still bound, per cent of control (PIK3CD (human)): 40%; kinase still bound, per cent of control (PLK4 (human)): 86%; kinase still bound, per cent of control (PRKAA2 (human)): 97%; kinase still bound, per cent of control (PRKACB (human)): 98%; kinase still bound, per cent of control (RIPK2 (human)): 66%; kinase still bound, per cent of control (RIPK4 (human)): 100%; kinase still bound, per cent of control (RPS6KA1 KD2 (human)): 84%; kinase still bound, per cent of control (SIK2 (human)): 92%; kinase still bound, per cent of control (SRPK1 (human)): 100%; kinase still bound, per cent of control (STK17A (human)): 100%; kinase still bound, per cent of control [2]: 100%; kinase still bound, per cent of control [3]: 100%; kinase still bound, per cent of control (ULK2 (human)): 97%
CCC(=O)N1CCN(c2ccc(-n3c(=O)ccc4cnc5ccc(-c6cnc7ccccc7c6)cc5c43)cc2C(F)(F)F)CC1	45	80	100	78	100	79	80	3.4	1.6	88	100	49	24%	81	88	62	90	85	42	16%	kinase still bound, per cent of control [1]: 100%; kinase still bound, per cent of control (KDR (human)): 65%; kinase still bound, per cent of control (LCK (human)): 77%; kinase still bound, per cent of control (MAP3K12 (human)): 100%; kinase still bound, per cent of control (MAP3K7 (human)): 47%; kinase still bound, per cent of control (MAP4K2 (human)): 35%; kinase still bound, per cent of control (PAK6 (human)): 77%; kinase still bound, per cent of control (PIK3CD (human)): 51%; kinase still bound, per cent of control (PLK4 (human)): 100%; kinase still bound, per cent of control (PRKAA2 (human)): 74%; kinase still bound, per cent of control (PRKACB (human)): 100%; kinase still bound, per cent of control (RIPK2 (human)): 44%; kinase still bound, per cent of control (RIPK4 (human)): 100%; kinase still bound, per cent of control (RPS6KA1 KD2 (human)): 100%; kinase still bound, per cent of control (SIK2 (human)): 23%; kinase still bound, per cent of control (SRPK1 (human)): 100%; kinase still bound, per cent of control (STK17A (human)): 93%; kinase still bound, per cent of control [2]: 70%; kinase still bound, per cent of control [3]: 55%; kinase still bound, per cent of control (ULK2 (human)): 75%
